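Test compounds were applied to cells in 96-well plates for 48 hours at 5 doses. GI50 is the concentration that inhibits growth by half. TGI is the concentration that stops growth completely.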
Columns and labels:
Experiment in all cases: NCI-60 cell line screen, 48 h
PC-3 prostate = system: PC-3 prostate
NCI-H522 lung = system: NCI-H522 lung
OVCAR-4 ovarian = system: OVCAR-4 ovarian
ACHN renal = system: ACHN renal
UO-31 renal = system: UO-31 renal
MDA-MB-435 = system: MDA-MB-435
SF-268 CNS = system: SF-268 CNS
HCC-2998 colon = system: HCC-2998 colon
MDA-MB-231 breast = system: MDA-MB-231 breast
COLO 205 colon = system: COLO 205 colon
MCF7 breast = system: MCF7 breast
LOX IMVI melanoma = system: LOX IMVI melanoma
NCI-H23 lung = system: NCI-H23 lung
OVCAR-5 ovarian = system: OVCAR-5 ovarian
HCT-15 colon = system: HCT-15 colon
TK-10 renal = system: TK-10 renal
NCI-H226 lung = system: NCI-H226 lung
HL-60(TB) leukemia = system: HL-60(TB) leukemia
OVCAR-3 ovarian = system: OVCAR-3 ovarian
HT29 colon = system: HT29 colon
IGROV1 ovarian = system: IGROV1 ovarian
T-47D breast = system: T-47D breast
OVCAR-8 ovarian = system: OVCAR-8 ovarian
NCI-H460 lung = system: NCI-H460 lung
SNB-75 CNS = system: SNB-75 CNS
HOP-62 NSCLC = system: HOP-62 NSCLC
SNB-19 CNS = system: SNB-19 CNS
SN12C renal = system: SN12C renal
RPMI-8226 leukemia = system: RPMI-8226 leukemia
CCRF-CEM leukemia = system: CCRF-CEM leukemia
UACC-257 melanoma = system: UACC-257 melanoma
MALME-3M melanoma = system: MALME-3M melanoma
UACC-62 melanoma = system: UACC-62 melanoma
A549 NSCLC = system: A549 NSCLC
MOLT-4 leukemia = system: MOLT-4 leukemia
U251 CNS = system: U251 CNS
BT-549 breast = system: BT-549 breast
M14 melanoma = system: M14 melanoma
RXF 393 renal = system: RXF 393 renal
K-562 leukemia = system: K-562 leukemia
NCI/ADR-RES ovarian = system: NCI/ADR-RES ovarian
SW-620 colon = system: SW-620 colon
HS 578T breast = system: HS 578T breast
SK-OV-3 ovarian = system: SK-OV-3 ovarian
KM12 colon = system: KM12 colon
DU-145 prostate = system: DU-145 prostate
A498 renal = system: A498 renal
786-0 renal = system: 786-0 renal
SK-MEL-5 melanoma = system: SK-MEL-5 melanoma
SK-MEL-2 melanoma = system: SK-MEL-2 melanoma
HOP-92 NSCLC = system: HOP-92 NSCLC
EKVX NSCLC = system: EKVX NSCLC
SF-295 CNS = system: SF-295 CNS
SK-MEL-28 melanoma = system: SK-MEL-28 melanoma
SF-539 CNS = system: SF-539 CNS

Question: What does the source list for `CCc1ccc2c(c1)C(=O)c1c-2n(CCCN=[N+]=[N-])c(=O)c2cc(OC)c(OC)cc12`?
Answer: GI50 (PC-3 prostate): > 100 µM; TGI (PC-3 prostate): > 100 µM; GI50 (NCI-H522 lung): 49 µM; TGI (NCI-H522 lung): > 100 µM; GI50 (OVCAR-4 ovarian): > 100 µM; TGI (OVCAR-4 ovarian): > 100 µM; GI50 (ACHN renal): 42.2 µM; TGI (ACHN renal): > 100 µM; GI50 (UO-31 renal): > 100 µM; TGI (UO-31 renal): > 100 µM; GI50 (MDA-MB-435): > 100 µM; TGI (MDA-MB-435): > 100 µM; GI50 (SF-268 CNS): 60.7 µM; TGI (SF-268 CNS): > 100 µM; GI50 (HCC-2998 colon): > 100 µM; TGI (HCC-2998 colon): > 100 µM; GI50 (MDA-MB-231 breast): > 100 µM; TGI (MDA-MB-231 breast): > 100 µM; GI50 (COLO 205 colon): > 100 µM; TGI (COLO 205 colon): > 100 µM; GI50 (MCF7 breast): 91.7 µM; TGI (MCF7 breast): > 100 µM; GI50 (LOX IMVI melanoma): > 100 µM; TGI (LOX IMVI melanoma): > 100 µM; GI50 (NCI-H23 lung): > 100 µM; TGI (NCI-H23 lung): > 100 µM; GI50 (OVCAR-5 ovarian): > 100 µM; TGI (OVCAR-5 ovarian): > 100 µM; GI50 (HCT-15 colon): > 100 µM; TGI (HCT-15 colon): > 100 µM; GI50 (TK-10 renal): 44.2 µM; TGI (TK-10 renal): > 100 µM; GI50 (NCI-H226 lung): > 100 µM; TGI (NCI-H226 lung): > 100 µM; GI50 (HL-60(TB) leukemia): > 100 µM; TGI (HL-60(TB) leukemia): > 100 µM; GI50 (OVCAR-3 ovarian): > 100 µM; TGI (OVCAR-3 ovarian): > 100 µM; GI50 (HT29 colon): > 100 µM; TGI (HT29 colon): > 100 µM; GI50 (IGROV1 ovarian): 53.4 µM; TGI (IGROV1 ovarian): > 100 µM; GI50 (T-47D breast): > 100 µM; TGI (T-47D breast): > 100 µM; GI50 (OVCAR-8 ovarian): > 100 µM; TGI (OVCAR-8 ovarian): > 100 µM; GI50 (NCI-H460 lung): > 100 µM; TGI (NCI-H460 lung): > 100 µM; GI50 (SNB-75 CNS): > 100 µM; TGI (SNB-75 CNS): > 100 µM; GI50 (HOP-62 NSCLC): 56.2 µM; TGI (HOP-62 NSCLC): > 100 µM; GI50 (SNB-19 CNS): > 100 µM; TGI (SNB-19 CNS): > 100 µM; GI50 (SN12C renal): > 100 µM; TGI (SN12C renal): > 100 µM; GI50 (RPMI-8226 leukemia): > 100 µM; TGI (RPMI-8226 leukemia): > 100 µM; GI50 (CCRF-CEM leukemia): > 100 µM; TGI (CCRF-CEM leukemia): > 100 µM; GI50 (UACC-257 melanoma): > 100 µM; TGI (UACC-257 melanoma): > 100 µM; GI50 (MALME-3M melanoma): > 100 µM; TGI (MALME-3M melanoma): > 100 µM; GI50 (UACC-62 melanoma): 91.9 µM; TGI (UACC-62 melanoma): > 100 µM; GI50 (A549 NSCLC): > 100 µM; TGI (A549 NSCLC): > 100 µM; GI50 (MOLT-4 leukemia): > 100 µM; TGI (MOLT-4 leukemia): > 100 µM; GI50 (U251 CNS): 47.1 µM; TGI (U251 CNS): > 100 µM; GI50 (BT-549 breast): 76.5 µM; TGI (BT-549 breast): > 100 µM; GI50 (M14 melanoma): > 100 µM; TGI (M14 melanoma): > 100 µM; GI50 (RXF 393 renal): 29.9 µM; TGI (RXF 393 renal): > 100 µM; GI50 (K-562 leukemia): > 100 µM; TGI (K-562 leukemia): > 100 µM; GI50 (NCI/ADR-RES ovarian): > 100 µM; TGI (NCI/ADR-RES ovarian): > 100 µM; GI50 (SW-620 colon): > 100 µM; TGI (SW-620 colon): > 100 µM; GI50 (HS 578T breast): 89.1 µM; TGI (HS 578T breast): > 100 µM; GI50 (SK-OV-3 ovarian): > 100 µM; TGI (SK-OV-3 ovarian): > 100 µM; GI50 (KM12 colon): > 100 µM; TGI (KM12 colon): > 100 µM; GI50 (DU-145 prostate): > 100 µM; TGI (DU-145 prostate): > 100 µM; GI50 (A498 renal): 25.8 µM; TGI (A498 renal): 84.5 µM; GI50 (786-0 renal): 40.6 µM; TGI (786-0 renal): > 100 µM; GI50 (SK-MEL-5 melanoma): > 100 µM; TGI (SK-MEL-5 melanoma): > 100 µM; GI50 (SK-MEL-2 melanoma): > 100 µM; TGI (SK-MEL-2 melanoma): > 100 µM; GI50 (HOP-92 NSCLC): 23.8 µM; TGI (HOP-92 NSCLC): 94.8 µM; GI50 (EKVX NSCLC): > 100 µM; TGI (EKVX NSCLC): > 100 µM; GI50 (SF-295 CNS): 56.1 µM; TGI (SF-295 CNS): > 100 µM; GI50 (SK-MEL-28 melanoma): > 100 µM; TGI (SK-MEL-28 melanoma): > 100 µM; GI50 (SF-539 CNS): 57.2 µM; TGI (SF-539 CNS): > 100 µM

Source: PubChem BioAssay (NCI)
